The test system of assay [1] is A549. As to the kind of experiment: Antiproliferative activity against VEGF-stimulated human A549 cells after 48 hrs by CCK8 assay. Type of assay: functional, cell-based. The following applies: A549, 48 h. On the technique in general: Tetrazolium dyes change colour on reduction, which living cells bring about.
The test system of assay [2] is HepG2. In words: Antiproliferative activity against VEGF-stimulated human HepG2 cells after 48 hrs by CCK8 assay. It is filed as functional, cell-based. The following applies: HepG2, 48 h.
A short description of assay [3]: Selectivity ratio of IC50 for VEGF-stimulated human HepG2 cells to IC50 for VEGF-stimulated human A549 cells. It is filed as functional.
The target in assay [4] is Vascular endothelial growth factor receptor 2 (Homo sapiens, UniProt P35968). As to the kind of experiment: biochemical. Type of assay: cell-based, Sf9.
Chain of Vascular endothelial growth factor receptor 2 (P35968 whole entry): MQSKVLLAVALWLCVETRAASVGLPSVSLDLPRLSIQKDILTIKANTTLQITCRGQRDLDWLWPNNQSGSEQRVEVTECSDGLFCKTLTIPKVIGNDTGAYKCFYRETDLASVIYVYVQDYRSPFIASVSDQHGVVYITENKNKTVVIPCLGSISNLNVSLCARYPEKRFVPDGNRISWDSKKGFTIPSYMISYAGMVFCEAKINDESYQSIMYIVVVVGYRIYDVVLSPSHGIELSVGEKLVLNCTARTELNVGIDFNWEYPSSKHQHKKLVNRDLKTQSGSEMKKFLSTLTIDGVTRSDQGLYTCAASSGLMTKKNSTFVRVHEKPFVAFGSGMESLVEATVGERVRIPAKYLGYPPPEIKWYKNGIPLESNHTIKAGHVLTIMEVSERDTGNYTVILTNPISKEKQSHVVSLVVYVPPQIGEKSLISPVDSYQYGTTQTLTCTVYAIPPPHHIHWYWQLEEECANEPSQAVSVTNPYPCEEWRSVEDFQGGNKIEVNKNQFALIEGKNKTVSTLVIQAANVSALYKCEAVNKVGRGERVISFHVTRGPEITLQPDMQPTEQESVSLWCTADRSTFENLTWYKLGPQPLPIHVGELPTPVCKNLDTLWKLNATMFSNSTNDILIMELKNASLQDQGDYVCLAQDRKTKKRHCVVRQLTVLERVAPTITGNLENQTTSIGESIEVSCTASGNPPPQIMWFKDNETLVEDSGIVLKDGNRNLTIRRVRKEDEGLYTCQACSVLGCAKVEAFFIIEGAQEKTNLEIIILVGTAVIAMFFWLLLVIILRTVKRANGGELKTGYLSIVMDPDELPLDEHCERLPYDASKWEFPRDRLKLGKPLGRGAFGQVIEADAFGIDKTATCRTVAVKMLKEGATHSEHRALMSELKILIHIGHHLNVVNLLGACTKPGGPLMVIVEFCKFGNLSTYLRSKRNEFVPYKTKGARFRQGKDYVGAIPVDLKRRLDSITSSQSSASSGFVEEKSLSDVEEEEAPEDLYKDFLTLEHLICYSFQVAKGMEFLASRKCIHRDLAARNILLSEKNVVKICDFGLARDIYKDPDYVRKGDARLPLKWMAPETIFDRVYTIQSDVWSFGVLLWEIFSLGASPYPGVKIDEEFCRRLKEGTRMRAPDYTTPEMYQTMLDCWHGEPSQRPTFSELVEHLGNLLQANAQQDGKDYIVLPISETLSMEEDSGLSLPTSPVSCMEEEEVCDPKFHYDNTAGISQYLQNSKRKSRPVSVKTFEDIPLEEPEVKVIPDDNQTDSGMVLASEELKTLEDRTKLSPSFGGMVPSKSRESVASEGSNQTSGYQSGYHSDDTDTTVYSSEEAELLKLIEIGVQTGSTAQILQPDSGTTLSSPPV
Description: Inhibition of recombinant human N-terminal GST-tagged VEGFR2 (789 to end residues) expressed in baculovirus infected Sf9 insect cells using Poly (4:1 Glu,Tyr) as substrate measured after 1 hr by ADP-Glo kinase assay

Bounds are passed on as bounds.

Consider 23 compounds from ChEMBL document CHEMBL4257501, “Discovery of novel picolinamide-based derivatives as novel VEGFR-2 kinase inhibitors: synthesis, in vitro biological evaluation and molecular docking” (Medchemcomm, 2018).

Regarding `O=C(NC1CCCCC1)c1cc(Oc2ccc(/C=C/c3ccncc3)cc2)ccn1`, the IC50 (in general, the concentration that gives 50% inhibition) in assay [1] worked out at 16.8 µM; in assay [2], 22.4 µM; in assay [4] it was 1.22 µM. In assay [3], the “Ratio IC50” value is reported as 1.3.
Regarding `O=C(Nc1ccc(Cl)cc1)c1cc(Oc2ccc(/C=C/c3ccccn3)cc2)ccn1`, the IC50 in assay [1] came out at 16.2 µM; in assay [2] it was 31.3 µM. Moreover, in assay [3], the “Ratio IC50” value worked out at 1.9.
Take `O=C(c1cc(Oc2ccc(/C=C/c3ccccn3)cc2)ccn1)N1CCCC1`: the IC50 was 15.6 µM in assay [1] and 27 µM in assay [2]. Also, in assay [3], the “Ratio IC50” value is on record as 1.7.
The matching figures for `O=C(NC1CC1)c1cc(Oc2ccc(/C=C/c3ccccn3)cc2)ccn1`: 17.3 µM, 31 µM and 1.8.
The matching figures for `CC(C)NC(=O)c1cc(Oc2ccc(/C=C/c3ccncc3)cc2)ccn1`: 20.6 µM, 33.7 µM and 1.6.
Regarding `O=C(Nc1ccccc1)c1cc(Oc2ccc(/C=C/c3ccccn3)cc2)ccn1`, the IC50 in assay [1] is 19.1 µM; in assay [2], 30.2 µM. Moreover, the “Ratio IC50” value in assay [3] is 1.6.
On the same counts, the results for `O=C(NCc1ccccc1)c1cc(Oc2ccc(/C=C/c3ccccn3)cc2)ccn1` are 18.8 µM, 27.9 µM and 1.5.
Regarding `O=C(NCc1ccccc1)c1cc(Oc2ccc(/C=C/c3ccncc3)cc2)ccn1`, the IC50 stood at 17 µM in assay [1] and 28.9 µM in assay [2]. For the same compound, in assay [3], the “Ratio IC50” value is given as 1.7.
For `COc1ccc(NC(=O)c2cc(Oc3ccc(/C=C/c4ccncc4)cc3)ccn2)cc1`, the IC50 in assay [1] was 25.6 µM; in assay [2], over 100 µM. For the same compound, the “Ratio IC50” value in assay [3] is over 3.9.
With `COc1ccc(CNC(=O)c2cc(Oc3ccc(/C=C/c4ccncc4)cc3)ccn2)cc1`, the concentration for half-maximal inhibition (IC50) in assay [1] was 19.3 µM; in assay [2], over 100 µM. The “Ratio IC50” value in assay [3] is reported as over 5.2.
`O=C(Nc1ccc(Cl)cc1)c1cc(Oc2ccc(/C=C/c3ccncc3)cc2)ccn1`: the IC50 came out at 62.1 µM in assay [1] and 56.2 µM in assay [2]. In addition, the “Ratio IC50” value in assay [3] is recorded as 0.9.
On the same counts, the results for `CC(C)NC(=O)c1cc(Oc2ccc(/C=C/c3ccccn3)cc2)ccn1` are 21.4 µM, over 100 µM and over 4.7.
On the same counts, the results for `O=C(Nc1ccccc1)c1cc(Oc2ccc(/C=C/c3ccncc3)cc2)ccn1` are 79.7 µM, over 100 µM and over 1.2.
The matching figures for `O=C(NC1CC1)c1cc(Oc2ccc(/C=C/c3ccncc3)cc2)ccn1`: 35.5 µM, 77.5 µM and 2.2.
As for `CNC(=O)c1cc(Oc2ccc(NC(=O)Nc3ccc(Cl)c(C(F)(F)F)c3)cc2)ccn1` [SORAFENIB], the IC50 in assay [1] stood at 19.3 µM; in assay [2] it was 29 µM.
With `CNC(=O)c1cc(Oc2ccc(/C=C/c3ccncc3)cc2)ccn1`, the IC50 in assay [1] was 13.2 µM; in assay [2], 18.2 µM; in assay [4], 0.29 µM. The “Ratio IC50” value in assay [3] is 1.4.
As for `COc1ccc(CNC(=O)c2cc(Oc3ccc(/C=C/c4ccccn4)cc3)ccn2)cc1`, the IC50 amounted to 63.6 µM in assay [1] and 26 µM in assay [2]. Moreover, the “Ratio IC50” value in assay [3] stood at 0.4.
Consider `O=C(NCc1ccc(F)cc1)c1cc(Oc2ccc(/C=C/c3ccncc3)cc2)ccn1`, for which the IC50 is 18.2 µM in assay [1] and 37.2 µM in assay [2]. Further, the “Ratio IC50” value in assay [3] is recorded as 2.
The matching figures for `COc1ccc(NC(=O)c2cc(Oc3ccc(/C=C/c4ccccn4)cc3)ccn2)cc1`: 20 µM, 30 µM and 1.5.
As to `O=C(NCc1ccc(F)cc1)c1cc(Oc2ccc(/C=C/c3ccccn3)cc2)ccn1`, the IC50 was over 100 µM in assay [1] and 45.1 µM in assay [2]. Moreover, the “Ratio IC50” value in assay [3] was under 0.5.
Consider `O=C(NC1CCCCC1)c1cc(Oc2ccc(/C=C/c3ccccn3)cc2)ccn1`, for which the IC50 was found to be 12.5 µM in assay [1], 20.6 µM in assay [2] and 0.53 µM in assay [4]. Besides, the “Ratio IC50” value in assay [3] was 1.6.
As for `O=C(c1cc(Oc2ccc(/C=C/c3ccncc3)cc2)ccn1)N1CCCC1`, the figures for the IC50 in assay [1] and in assay [2] were 18.6 µM and 41.6 µM, respectively. Also, in assay [3], the “Ratio IC50” value is given as 2.2.
With `CNC(=O)c1cc(Oc2ccc(/C=C/c3ccccn3)cc2)ccn1`, the IC50 in assay [1] was determined as 17.4 µM; in assay [2] it was 21.6 µM; in assay [4], 0.87 µM. Further, the “Ratio IC50” value in assay [3] is recorded as 1.2.
